The values that follow come from ChEMBL document CHEMBL1141924 (Bioorg Med Chem Lett, 2005).

The assay concerns the target Carbonic anhydrase V (Homo sapiens, UniProt Q9Y2D0+P35218).

As a reminder, the Ki is a dissociation constant, usually derived from enzyme kinetics or from competition with a known ligand. In the case of `CC1(C)O[C@@H]2[C@@H](CO[C@@]3(COS(N)(=O)=O)OC(C)(C)O[C@@H]23)O1` [TOPIRAMATE], the Ki was 25.4 nM.
